Test results as given in paper PMC9841576, “Characterisation of C101248: A novel selective THIK-1 channel inhibitor for the modulation of microglial NLRP3-inflammasome” (Neuropharmacology, 2023).

Experiments:
THIK-1 = target: T1, THIK-1 (Homo sapiens, UniProt Q9HB14); assay: Whole-cell manual patch clamp of HEK-hTHIK-1 cells with rapid perfusion exchanger; format: cell-based; conditions: current at 50 mV
T1 construct: expressed in transfected cells
T1 sequence (Q9HB14 1-408): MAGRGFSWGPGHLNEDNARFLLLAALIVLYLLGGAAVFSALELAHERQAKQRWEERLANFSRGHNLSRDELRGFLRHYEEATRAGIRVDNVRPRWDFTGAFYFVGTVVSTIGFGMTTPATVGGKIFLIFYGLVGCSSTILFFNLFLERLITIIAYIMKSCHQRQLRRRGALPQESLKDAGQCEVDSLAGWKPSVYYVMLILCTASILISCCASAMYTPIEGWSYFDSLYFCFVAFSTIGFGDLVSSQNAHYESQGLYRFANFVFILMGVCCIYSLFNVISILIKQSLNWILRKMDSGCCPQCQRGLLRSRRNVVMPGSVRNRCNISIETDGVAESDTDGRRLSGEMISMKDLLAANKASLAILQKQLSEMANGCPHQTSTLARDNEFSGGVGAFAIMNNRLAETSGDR
Method: Cells were plated onto uncoated, sterile glass coverslips at a density of 1 × 10^6 cells/ml in a droplet of approximately 200 μl and incubated at 37 °C/5% CO2 before use at least 24 h later. Coverslips were transferred to the microscope stage chamber and cells visualised under IR-DIC illumination. The chamber was gravity perfused with a solution containing (in mM): 140 NaCl, 2.5 KCl, 10 HEPES, 1 NaH2PO4.H20, 2 CaCl2, 1 MgCl2, 10 glucose, with pH adjusted to 7.4 using NaOH and osmolarity adjusted to 320 mOsM using sucrose. The chamber was fed from a rapid perfusion exchanger, which continuously perfused square, multi-barrelled glass tubes, using laminar flow. Cells were patched using micropipettes filled with a solution containing (in mM): 125 KCl, 4 NaCl, 1 CaCl2, 10 HEPES, 10 EGTA, 4 MgATP, 2 Na2ATP, 2 MgCl2, 0.5 Na2GTP, pH adjusted to 7.1 with KOH and osmolarity adjusted to 320 mOsm with sucrose. The liquid junction potential was calculated to be 4.8 mV and was not corrected for. […] The current at 50 mV from each sweep was measured and plotted against time. Curves were fitted in GraphPad Prism to a one phase decay [Y= IF(X < X0, Y0, Plateau+(Y0-Plateau)*exp(-K*(X-X0))), where x = time, y = Y0 until X = X0 then decays down to plateau with one phase, K = rate constant]. τ values were calculated to determine the activation time constant.

[1] = tested on: NLRP3-dependent release of IL-1β; assay: LPS/ATP-induced IL-1β release from adult microglia; format: cell-based, mouse; conditions: 0.1 and 1 μM
Method: Microglia were isolated from C57BL/6 male and female mice aged 6–10 weeks (Charles River, UK) as previously described ([Drinkall et al., 2022]). In brief, brains were isolated, minced, and digested using a Neural Tissue Dissociation Kit (Miltenyi Biotec Ltd., UK) according to manufacturer's instructions. The resulting suspension was dissociated using a Dounce tissue grinder (Sigma). Myelin was removed by centrifuging cell suspension in 33% Percoll (GE Healthcare) for 10 min at 1000 g with low break and aspiration of myelin layer. Cells were pelleted by diluting 1:4 in Ca^2+/Mg^2+ free Hank's balanced salt solution (CMF-HBSS, Gibco) and centrifuged for 10 min at 500 g. […] The eluted microglia were counted and plated onto 96-well Cell + plates (Sarstedt) at a density of 30,000 cells per well in culture medium (DMEM/F12, 10% FBS, 1% PenStrep, 2 mM glutamine, 20 ng/ml IL-34 (R&D Systems), and 50 ng/ml transforming growth factors-β1 (Miltenyi Biotec Ltd., UK)). […]
IL-1β from culture supernatants was measured with DuoSet ELISA kit (R&D Systems) following the manufacturer instructions.

Phosphodiesterase PDE3 = assay: Promiscuity screening panel, radiometric binding; conditions: Phosphodiesterase PDE3, Human
Method: C101248 was further profiled in a promiscuity screening panel, using radiometric binding assays, against a selection of 18 diverse targets at 10 μM (Supplementary Table 2).
Supplementary Table 2: Promiscuity screening panel data for C101248. Compound was screened at 10 µM, in duplicate, using radiometric binding assays

Question: Which results are given for `Nc1nonc1-c1nc2ccccc2n1Cc1ccncc1` [C101248]?
Answer: activation time constant (τ) (THIK-1; 0.5 μM): 217.4 ± 61.4 s; activation time constant (τ) (THIK-1; 5 μM): 83.4 ± 17.2 s; effect on LPS/ATP-induced IL-1β release [1]: significantly attenuated; % inhibition at 10 µM (n=2) (Phosphodiesterase PDE3): 1%
